Data reported in patent US10259807B2, “1-(piperazin-1-yl)-2-([1,2,4]triazol-1-yl)-ethanone derivatives” (Idorsia Pharmaceuticals Ltd., priority 2013, dated 2019).
One block for each compound: values may come before it.

Experiment: Determination of pharmacokinetic parameters in rats
Conditions: for AUC: male, Wistar (RccHan:WIST), rat, po, 2 mg/kg
Protocol: Male Wistar rats (RccHan:WIST) were obtained from Harlan (Venray, The Netherlands) and used for pharmacokinetic experiments after an acclimatization period of at least 7 days. The body weight of the rats was about 250 g at the day of the experiment. Two days prior to dosing, rats were anesthetized for surgery via inhalation of isoflurane (4-5% for induction and 1.5-3% for maintenance) in oxygen. Buprenorphine was dosed as analgesic at 0.03 mg/kg sc half an hour before surgery. Under aseptic conditions, catheters were implanted into jugular vein for dosing and carotid artery to allow for multiple serial blood sampling. […] Compounds were administered intravenously via a 5-minute infusion at doses of 0.5 or 1 mg/kg body weight formulated as solutions in water prepared by pH adjustment or as an aqueous mixed micellar vehicle based on phospholipids and bile acids (mixed micelles). […] Oral formulations were solutions in water prepared by pH adjustment or dispersions prepared by addition of a DMSO stock solution of the compounds to methylcellulose (0.5% w/v) in water. […] Blood samples were centrifuged at 3000 g (10 minutes, 4° C.) and plasma was submitted to LC-MS/MS analysis.

SMILES: Cc1nc(C)n(CC(=O)N2CCN(c3sc(C(F)(F)F)nc3-c3cnc(C(F)(F)F)nc3)C[C@H]2C)n1 [Example 24, 2-(3,5-Dimethyl-[1,2,4]triazol-1-yl)-1-{(R)-2-methyl-4-[2-trifluoromethyl-4-(2-trifluoromethyl-pyrimidin-5-yl)-thiazol-5-yl]-piperazin-1-yl}-ethanone]
- plasma concentration after oral administration (compared to reference compounds disclosed in WO 2010/126811): surprisingly high plasma concentration
- AUC (in vivo, pH 2.1): 14000 ng·h/mL

- AUC (plasma): 273 ng·h/mL
SMILES: COc1ncc(-c2cc(C(F)(F)F)ccc2N2CCN(C(=O)Cn3nc(C)cc3C)CC2)cn1 [reference compound 1, 2-(3,5-Dimethyl-pyrazol-1-yl)-1-{4-[2-(2-methoxy-pyrimidin-5-yl)-4-trifluoromethyl-phenyl]piperazin-1-yl}-ethanone]

- AUC (plasma): 202 ng·h/mL
SMILES: CSc1ncc(-c2cc(C(F)(F)F)ccc2N2CCN(C(=O)Cn3nc(C)cc3C)CC2)cn1 [reference compound 2, 2-(3,5-Dimethyl-pyrazol-1-yl)-1-{4-[2-(2-methylsulfanyl-pyrimidin-5-yl)-4-trifluoromethyl-phenyl]-piperazin-1-yl}-ethanone]

- AUC (plasma, pH 3.03): 271 ng·h/mL
SMILES: CNc1ncc(-c2cc(C(F)(F)F)ccc2N2CCN(C(=O)Cn3nc(C)cc3C)CC2)cn1 [reference compound 3, 2-(3,5-Dimethyl-pyrazol-1-yl)-1-{4-[2-(2-methylamino-pyrimidin-5-yl)-4-trifluoromethyl-phenyl]-piperazin-1-yl}-ethanone]
